# Laboratory results reported in patent US20240366649A1, “4-ETHYNYL-3-HYDROXY-TETRAHYDROFURANYL-ADENINE PHOSPHORAMIDATES AND RELATED COMPOUNDS AND THEIR USE IN TREATING MEDICAL CONDITIONS” (ROME THERAPEUTICS, INC., priority 2021, published 2024).
# Legend:
# [1] = system: IFN-β production in PBMCs; assay: Decitabine-stimulated human PBMC assay; type: cell-based; details: anti-CD3/anti-CD28, 10 μM decitabine, 5 days
# Protocol: EasySep buffer (32 mL, Stem Cell, cat. #20144) was used to dilute 8 mL of LRSC buffy coat (from fresh Leukopak) with gentle mixing. The diluted buffy coat (20 mL) was transferred into each of two SepMate 50 tubes, and the tubes were filled with 15 mL of Lyphoprep (Stem Cell, ct. #07851) density gradient. The SepMate tubes were then centrifuged at 1200G for 10 minutes at room temperature with the brake on. The top layer of supernatant was collected in SepMate tubes by quickly pouring it into a new 50 mL conical tube. The PBMCs were washed with EasySep buffer ×2 by centrifuging at 300G for 5 minutes. The cells were resuspended in 30 mL of EasySep and centrifuged at 100G for 5 minutes with the brake off, and the platelets were removed. The cells were then resuspended in 6 mL of 1×RBC lysis buffer (InvitroGen) and incubated at 37° C. for 5 minutes. Then, 25 mL of EasySep buffer was mixed into the tube and it was centrifuged at 300G for 5 minutes. The cells were resuspended in 10 mL of EasySep buffer and the cells were then counted with Cellometer (AO/PI). The PBMCs were resuspended in RPMI1640 (ThermoFisher)+10% FBS (HyClone)+p/s at 3×10^6/mL. The PBMCs (100 μL, 300 k PBMCs) were then seeded in a 96-well flat bottom microplate (Corning) that had been precoated with 100 μL of anti-CD3 antibody (10 μg/mL in PBS, Biolegend) or PBS at 4° C., one day before the assay was commenced. […]
# [2] = system: Ovarian cancer SK-OV-3 cells; assay: Cancer cell viability assay with 3D cell colonies (CellTiter-Glo), SK-OV-3; type: cell-based; details: SK-OV-3, 3D methylcellulose colonies, 7 days
# Protocol: (§1) Cancer cell lines were cultured in the following media: • Ovarian cancer OVCAR-8 cells—RPMI media containing 10% FBS • Ovarian cancer SK-OV-3 cells—McCoy's 5a media containing 10% FBS • Ovarian cancer SW756 cells—L-15 (100% air)+10% FBS • Esophageal cancer TE-1 cells—RPMI-1640+10% FBS • Esophageal cancer KYSE-410 cells—RPMI-1640+5˜10% FBS • Esophageal cancer KYSE-70 cells—RPMI-1640+10% h.i.FBS. • Pharyngeal cancer FaDu cells—MEM+0.01 mM NEAA+10% FBS
# (§2) Cell colony formation was tested using a 3D methylcellulose-based CellTiter-Glo (CTG) viability assay (Cat. No: G7573, Promega). Briefly, cells were inoculated into 96-well plates (at 1,500 cells per well) into a solution of 0.65% methylcellulose in growth media and incubated overnight at 37° C. in 5% CO2. The next day, serially diluted test compound (islatravir, 4′-ethynyl-2-fluoro-2′-deoxyadenosine) or positive control (cisplatin, Cat. No. 6J015A89, Qilu Pharma) were added at the indicated concentrations, and the cells were incubated for 7 days. On day seven, 100 μL of CTG reagent was added, and the plates were incubated at room temperature for 20 min. Luminescence was read on an Envision Multi Label Reader according to manufacturer's instructions. IC50 values were determined using the following calculation: […]
# [3] = system: Pharyngeal cancer FaDu cells; assay: Cancer cell viability assay with 3D cell colonies (CellTiter-Glo), FaDu; type: cell-based; details: 3D methylcellulose colonies, 7 days
# Protocol: as §1, §2
# [4] = system: Esophageal cancer KYSE-70 cells; assay: Cancer cell viability assay with 3D cell colonies (CellTiter-Glo), KYSE-70; type: cell-based; details: KYSE-70, 3D methylcellulose colonies, 7 days
# Protocol: as §1, §2
# [5] = system: Esophageal cancer TE-1 cells; assay: Cancer cell viability assay with 3D cell colonies (CellTiter-Glo), TE-1; type: cell-based; details: TE-1, 3D methylcellulose colonies, 7 days
# Protocol: as §1, §2
# [6] = system: Esophageal cancer KYSE-410 cells; assay: Cancer cell viability assay with 3D cell colonies (CellTiter-Glo), KYSE-410; type: cell-based; details: KYSE-410, 3D methylcellulose colonies, 7 days
# Protocol: as §1, §2
# [7] = system: Ovarian cancer SW756 cells; assay: Cancer cell viability assay with 3D cell colonies (CellTiter-Glo), SW756; type: cell-based; details: SW756, 3D methylcellulose colonies, 7 days
# Protocol: as §1, §2
# [8] = system: Ovarian cancer OVCAR-8 cells; assay: Cancer cell viability assay with 3D cell colonies (CellTiter-Glo), OVCAR-8; type: cell-based; details: OVCAR-8, 3D methylcellulose colonies, 7 days
# Protocol: as §1, §2
# [9] = target: LINE1 reverse transcriptase (Homo sapiens, UniProt O00370); assay: Homogeneous time-resolved fluorescence (HTRF) LINE1 RT assay; type: biochemical; set-up: recombinant MBP-tagged LINE1 protein (238-1061); MBP; made in house; details: recombinant MBP-tagged LINE1 protein (238-1061), read-out: IC50 for inhibiting LINE1 reverse transcriptase
# Protocol: The LINE1 reverse transcriptase homogeneous time-resolved fluorescence (HTRF) assay was performed with recombinant MBP-tagged LINE1 protein (238-1061) (generated and purified according to procedures in Dai L. et al. BMC Biochemistry 2011; 12:18) in a 384-well format. Test compound was serially diluted in DMSO and further diluted in the assay buffer (50 mM Tris-HCl, 50 mM KCl, 10 mM MgCl2, 10 mM DTT, pH 8.1) to achieve a final DMSO concentration of 1%. The serially diluted compound was mixed with 64 ng/well of LINE1 enzyme, 5 nM of pre-annealed template/biotin-primer pair (synthesized at Generay Biotechnology), 10 nM of Fluorescein-12-dATP fluorescent probe (Perkin Elmer), and 1 μM dGTP/dCTP/dTTP (Thermo Fisher Scientific) in the assay buffer. The template/biotin-primer sequences were as follows:
# (§3) After incubating at 25° C. for 60 minutes, the detection reagent (20 mM EDTA with streptavidin-terbium cryptate, Cisbio Bioassay) in the PPI buffer (Cisbio Bioassay) was added, and the mixture was incubated at 25° C. for 30 minutes. At the end of the incubation, fluorescence was read at ex/em=337/485 nm and ex/em=337/520 nm on an Envision 2104 plate reader (Perkin Elmer). The fluorescence ratio at 520/485 nm was used for the calculation. […] The IC50 was calculated by fitting the compound dose inhibition curve with a 4-parameter non-linear regression equation.
# [10] = target: T1, HERV-K reverse transcriptase (Homo sapiens, UniProt V9H0F6); assay: Homogeneous time-resolved fluorescence (HTRF) HERV-K RT assay; type: biochemical; details: HERV-K reverse transcriptase (2-596)-8His protein, read-out: IC50 for inhibiting HERV-K reverse transcriptase
# T1 construct: fused on or other part: C-terminal 8His tag
# Protocol: The HERV-K reverse transcriptase homogeneous time-resolved fluorescence (HTRF) assay was performed in a 384-well format with HERV-K reverse transcriptase (2-596)-8His protein. Baculoviruses were created using Bac-to-Bac technology (Invitrogen). pFastBac donor plasmids containing HERV-K reverse transcriptase sequence (NCBI GenBank number AAC63291.1, J. Virology (1999) Vol. 73, No. 3, pp. 2365-2375) were transformed into DH10 Bac cells following the manufacturer's instructions. Recombinant bacmids were then isolated clonally and transfected into SF9 cells with lipofectin. HERV-K reverse transcriptase was expressed in the SF9 insect cells and then purified using immobilized metal affinity chromatography (IMAC) followed by size-exclusion chromatography (SEC). […]
# as §3, with “30” for “60”, “20” for “(20”, “cryptate (Cisbio” for “cryptate, Cisbio”, “60” for “30”
# T1 sequence (V9H0F6 entry or part of it): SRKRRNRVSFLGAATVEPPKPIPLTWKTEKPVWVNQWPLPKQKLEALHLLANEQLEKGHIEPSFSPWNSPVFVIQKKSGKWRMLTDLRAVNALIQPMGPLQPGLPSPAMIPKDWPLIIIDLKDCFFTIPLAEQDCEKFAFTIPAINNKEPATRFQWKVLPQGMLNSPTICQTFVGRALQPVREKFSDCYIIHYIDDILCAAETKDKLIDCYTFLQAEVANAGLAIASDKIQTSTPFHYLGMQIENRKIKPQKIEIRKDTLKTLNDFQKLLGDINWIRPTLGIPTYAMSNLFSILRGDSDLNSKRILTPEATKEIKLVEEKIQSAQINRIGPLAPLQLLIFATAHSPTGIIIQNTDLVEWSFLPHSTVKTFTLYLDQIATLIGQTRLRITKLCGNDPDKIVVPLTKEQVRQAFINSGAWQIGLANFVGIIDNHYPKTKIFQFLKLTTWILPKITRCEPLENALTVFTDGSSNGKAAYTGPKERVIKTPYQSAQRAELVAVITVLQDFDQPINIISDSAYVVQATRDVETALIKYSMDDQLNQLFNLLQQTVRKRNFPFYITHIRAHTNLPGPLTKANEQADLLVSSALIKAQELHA
structure (smiles),measurement,setting,value
C#C[C@]1(CO)O[C@@H](n2cnc3c(N)nc(Cl)nc32)C[C@@H]1O [4′-ethynyl-2-chloro-2′-deoxyadenosine],production of IFN-β,[1],activated production of IFN-β
"N.N.[Cl][Pt][Cl] [Cisplatin, cisplatin]",IC50,[2],≤ 10000 nM
same,IC50,[3],≤ 10000 nM
same,IC50,[4],≤ 10000 nM
same,IC50,[5],≤ 10000 nM
same,IC50,[6],> 30000 nM
same,IC50,[7],≤ 10000 nM
same,IC50,[8],≤ 10000 nM
C#C[C@]1(COP(=O)(O)OP(=O)(O)OP(=O)(O)O)O[C@@H](n2cnc3c(N)nc(F)nc32)C[C@@H]1O [drawing 277],IC50,[9],23 nM
C#C[C@]1(COP(=O)(O)OP(=O)(O)OP(=O)(O)O)O[C@@H](n2cnc3c(N)nc(Cl)nc32)C[C@@H]1O [drawing 278],IC50,[9],20 nM
C#C[C@]1(COP(=O)(O)OP(=O)(O)OP(=O)(O)O)O[C@@H](n2cnc3c(N)nc(F)nc32)C[C@@H]1O [drawing 279],IC50,[10],17.8 nM
C#C[C@]1(COP(=O)(O)OP(=O)(O)OP(=O)(O)O)O[C@@H](n2cnc3c(N)nc(Cl)nc32)C[C@@H]1O [drawing 280],IC50,[10],310 nM
